# Results: ChEMBL document CHEMBL6115013, “Design, synthesis, and biological evaluation of novel azaspirooxindolinone derivatives as potent inhibitors of ITK and BTK-dependent cancers” (Bioorg Med Chem, 2025)
# What was measured:
# [1] = test system: A549; assay: Cytotoxicity against ITK/BTK null human A549 cells assessed as inhibition of cell growth by MTS assay
# [2] = test system: HCT-116; assay: Cytotoxicity against ITK/BTK null human HCT-116 cells assessed as inhibition of cell growth by MTS assay
# [3] = test system: U2OS; assay: Cytotoxicity against ITK/BTK null human U2OS cells assessed as inhibition of cell growth by MTS assay
# [4] = test system: Jurkat; assay: Cytotoxicity against ITK positive human Jurkat cells assessed as inhibition of cell growth by MTS assay
# [5] = test system: CCRF-CEM; assay: Cytotoxicity against ITK positive human CCRF-CEM cells assessed as inhibition of cell growth by MTS assay
# [6] = test system: Ramos; assay: Cytotoxicity against BTK positive human Ramos cells assessed as inhibition of cell growth by MTS assay
# [7] = test system: K562; assay: Cytotoxicity against BTK positive human K562 cells assessed as inhibition of cell growth by MTS assay
# [8] = Cytotoxicity against ITK/BTK null human MRC5 cells assessed as inhibition of cell growth by MTS assay; format: toxicity, cell-based
# [9] = Cytotoxicity against ITK/BTK null human BJ cells assessed as inhibition of cell growth by MTS assay; format: toxicity, cell-based
# [10] = test system: CCRF-CEM; assay: Antiproliferative activity against human CCRF-CEM cells; format: functional, cell-based
# [11] = biological target: T1, Tyrosine-protein kinase ITK/TSK (Homo sapiens, UniProt Q08881); assay: Inhibition of human ITK using poly (Glu:Tyr) as substrate in presence of ATP by ADP-glo kinase assay
# T1 sequence (Q08881 whole entry): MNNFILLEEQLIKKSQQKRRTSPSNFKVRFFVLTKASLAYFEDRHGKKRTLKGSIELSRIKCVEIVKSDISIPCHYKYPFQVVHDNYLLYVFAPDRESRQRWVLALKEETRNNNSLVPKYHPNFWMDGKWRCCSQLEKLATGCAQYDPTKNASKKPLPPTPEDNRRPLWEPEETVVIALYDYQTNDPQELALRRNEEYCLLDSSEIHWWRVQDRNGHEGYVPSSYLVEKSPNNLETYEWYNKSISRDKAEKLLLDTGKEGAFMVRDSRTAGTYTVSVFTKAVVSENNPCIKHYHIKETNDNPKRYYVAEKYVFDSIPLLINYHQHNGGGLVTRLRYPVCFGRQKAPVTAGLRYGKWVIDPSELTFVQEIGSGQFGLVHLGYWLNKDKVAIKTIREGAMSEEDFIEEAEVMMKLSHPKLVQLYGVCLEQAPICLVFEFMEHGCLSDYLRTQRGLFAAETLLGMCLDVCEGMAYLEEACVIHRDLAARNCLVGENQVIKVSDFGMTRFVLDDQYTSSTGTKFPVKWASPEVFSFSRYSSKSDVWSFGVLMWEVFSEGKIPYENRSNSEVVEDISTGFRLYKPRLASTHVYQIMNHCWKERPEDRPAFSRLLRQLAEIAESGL
# [12] = test system: MOLT-4; assay: Antiproliferative activity against human MOLT-4 cells; format: functional, cell-based
# [13] = test system: Jurkat; assay: Antiproliferative activity against human Jurkat cells; format: functional, cell-based
# [14] = test system: CEM-DNR; assay: Antiproliferative activity against human CEM-DNR cells; format: functional, cell-based
# [15] = Antiproliferative activity against human K562-Tax cells; format: functional, cell-based
# [16] = test system: Ramos; assay: Antiproliferative activity against human Ramos cells; format: functional, cell-based
IC50 [10] [µM],IC50 [11] [µM],IC50 [12] [µM],IC50 [13] [µM],IC50 [16] [µM],Compound,IC50 [1] [µM],IC50 [2] [µM],IC50 [3] [µM],IC50 [4] [µM],IC50 [5] [µM],IC50 [6] [µM],IC50 [7] [µM],IC50 [8] [µM],IC50 [9] [µM],IC50 [14] [µM],IC50 [15] [µM]
,,,,,O=C(N1CCC2(CC1)C(=O)Nc1ncc(-c3ccc4c(c3)OCO4)cc12)C(F)(F)F,> 50,> 50,> 50,10.8,20.7,> 50,> 50,> 50,> 50,,
25.5,,,,,O=C(N1CCC2(CC1)C(=O)Nc1ncc(-c3ccc4c(c3)OCO4)cc12)C1(CF)CC1,,,,,,,,,,,
,0.91,,,,CC(F)(F)C(=O)N1CCC2(CC1)C(=O)Nc1ncc(-c3ccc4c(c3)OCO4)cc12,> 50,> 50,> 50,3.58,17.2,3.06,> 50,> 50,> 50,,
> 50,,> 50,> 50,> 50,COC(=O)C1(C(=O)N2CCC3(CC2)C(=O)Nc2ncc(-c4cc(OC)c(OC)c(OC)c4)cc23)CC1,,,,,,,,,,> 50,> 50
,,,,,O=C(N1CCC2(CC1)C(=O)Nc1ncc(-c3ccc4c(c3)OCO4)cc12)C1(O)CC1,> 50,> 50,> 50,> 50,> 50,> 50,> 50,> 50,> 50,,
,,,,,O=C1Nc2ncc(-c3ccc4c(c3)OCO4)cc2C12CCN(S(=O)(=O)C(F)(F)F)CC2,> 50,> 50,> 50,> 50,> 50,> 50,> 50,> 50,> 50,,
,,,,,N#CC1(C(=O)N2CCC3(CC2)C(=O)Nc2ncc(-c4ccc5c(c4)OCO5)cc23)CC1,> 50,> 50,> 50,50,> 50,1.42,> 50,> 50,> 50,,
,,,,,O=C(O)C1(C(=O)N2CCC3(CC2)C(=O)Nc2ncc(-c4ccc5c(c4)OCO5)cc23)CC1,> 50,> 50,> 50,> 50,> 50,> 50,> 50,> 50,> 50,,
,,,,,C=CC(=O)N1CCC2(CC1)C(=O)Nc1ncc(-c3ccc4c(c3)OCO4)cc12,> 50,> 50,> 50,> 50,13.5,> 50,> 50,> 50,> 50,,
,,,,,O=C1Nc2ncc(-c3ccc4c(c3)OCO4)cc2C12CCN(C(=O)C1(C(F)(F)F)CC1)CC2,> 50,> 50,> 50,29.4,19.5,1.82,> 50,> 50,> 50,,
,,,,,CC(C)(C#N)C(=O)N1CCC2(CC1)C(=O)Nc1ncc(-c3ccc4c(c3)OCO4)cc12,> 50,> 50,> 50,9.36,14.3,10.1,> 50,> 50,> 50,,
15.2,,28.8,14.8,23.9,COC(=O)C1(C(=O)N2CCC3(CC2)C(=O)Nc2ncc(-c4ccc5c(c4)OCO5)cc23)CC1,,,,,,,,,,20.4,12.5
,,,,,CC(C)(O)C(=O)N1CCC2(CC1)C(=O)Nc1ncc(-c3ccc4c(c3)OCO4)cc12,> 50,> 50,> 50,> 50,> 50,> 50,> 50,> 50,> 50,,
7.26,,,2.25,24.3,O=C(N1CCC2(CC1)C(=O)Nc1ncc(-c3ccc4c(c3)OCO4)cc12)C1(F)CC1,,,,,,,,,,11.9,6.09
,,,,,CCOC(=O)C(C)(C)C(=O)N1CCC2(CC1)C(=O)Nc1ncc(-c3ccc4c(c3)OCO4)cc12,> 50,> 50,> 50,29.2,> 50,> 50,> 50,> 50,> 50,,
,> 10,,,,C=C(F)C(=O)N1CCC2(CC1)C(=O)Nc1ncc(-c3ccc4c(c3)OCO4)cc12,> 50,> 50,18.9,4.16,14.1,1.38,> 50,> 50,> 50,,
3.79,,,2.49,16.4,CC(C)(F)C(=O)N1CCC2(CC1)C(=O)Nc1ncc(-c3ccc4c(c3)OCO4)cc12,,,,,,,,,,6.01,3.68
,,,,,C=CC(=O)N1CCC[C@@H](n2nc(-c3ccc(Oc4ccccc4)cc3)c3c(N)ncnc32)C1 [IBRUTINIB],,,,,,,,27.9,28.9,,
